This note sets out measurements from ChEMBL document CHEMBL1201862, “PubChem BioAssay data set” (2004).

Molecules are shown by their SMILES.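 Where inhibition never reached the appropriate level, the endpoint shown equals the highest concentration tested. Otherwise, values were interpolated linearly from a five-concentration, 48-hour dose response in 96-well plates. GI50 is the concentration that inhibits growth by half.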 The source made the active and inactive calls. No stated cut-off is given here; in the data, active = GI50 up to about 1.1 µM and inactive = higher.

Among the test systems are 786-0; A498; ACHN; CAKI-1; HCC 2998; HL-60; HOP-92; K562; KM12; LOX IMVI; M19-MEL; MOLT-4; Malme-3M; SF-268; SNB-19; SNB-75; HCT-15.
Assay in all cases: inhibition of tumour cell growth, NCI panel, 48 h

As to `Nc1nc(-c2ccccc2)cc(-c2ccccc2O)n1`, the GI50 in the test on 786-0 was 48.6 µM (inactive); with A498 it was 40.7 µM (inactive); in the test with ACHN, 27.2 µM (inactive); in the test on CAKI-1, 34.1 µM (inactive); in the test on HCC 2998, 40.7 µM (inactive); with HL-60, 16.5 µM (inactive). Further, the GI50 with HOP-92 was > 100 µM (inactive); with K562 it was 39.1 µM (inactive); in the test on KM12, 23.9 µM (inactive); in the test on LOX IMVI, 31.8 µM (inactive); with M19-MEL, 43.1 µM (inactive); with MOLT-4, 25.1 µM (inactive). Also, the GI50 was > 100 µM (inactive) in the test with Malme-3M, 24 µM (inactive) with SF-268, 68.9 µM (inactive) in the test on SNB-19 and 36.6 µM (inactive) in the test with SNB-75.
For the compound `O=C(Cc1nc2ccccc2s1)C(=O)Nc1cccc(Cl)c1`, the GI50 in the test with 786-0 is > 100 µM (inactive); with A498, > 100 µM (inactive); in the test with ACHN, > 100 µM (inactive); with CAKI-1, > 100 µM (inactive); in the test on HCC 2998, > 100 µM (inactive); in the test on HCT-15, over 100 µM. Besides, the GI50 with HL-60, in the test with HOP-92, in the test with K562, in the test on KM12, with LOX IMVI and in the test on M19-MEL was > 100 µM (inactive) in each case. In addition, the GI50 in the test with Malme-3M is > 100 µM (inactive); in the test with SF-268 it was > 100 µM (inactive); in the test with SNB-19, > 100 µM (inactive); in the test on SNB-75, 48.9 µM (inactive).
Regarding `Cc1cccc(C)c1NC(=O)C1C(=O)N(c2c(C)cccc2C)C(=O)/C1=N\N` (centres undefined), the GI50 in the test with 786-0 was > 100 µM (inactive); in the test with A498, > 100 µM (inactive); with ACHN it was > 100 µM (inactive); with CAKI-1, > 100 µM (inactive); in the test on HCC 2998 it was > 100 µM (inactive); in the test on HCT-15, over 100 µM. For the same compound, the GI50 is 1.68 µM (inactive) in the test with HL-60; > 100 µM (inactive) with HOP-92; > 100 µM (inactive) with K562; > 100 µM (inactive) in the test with LOX IMVI; > 100 µM (inactive) in the test with M19-MEL; > 100 µM (inactive) in the test on MOLT-4. Moreover, the GI50 in the test on Malme-3M, with SF-268, in the test with SNB-19 and in the test with SNB-75 was > 100 µM (inactive) in each case.
Regarding `CC1=CC2CC(C)=C(CC[C@]3(C)CC[C@H]([C@@H](C)C(=O)O)OO3)C(C)(C)C2CC1` (some centres undefined), the GI50 in the test with 786-0 was 1.45 µM (inactive); in the test on A498 it was 1.75 µM (inactive); with ACHN it was 1.3 µM (inactive); in the test with CAKI-1 it was 1.17 µM (inactive); in the test with HCC 2998 it was 0.292 µM (active); in the test with HCT-15 it was 0.675 µM. Also, the GI50 is 0.0863 µM (active) in the test on HL-60; 0.136 µM (active) in the test on HOP-92; 0.208 µM (active) with K562; 0.128 µM (active) with KM12; 0.0792 µM (active) with LOX IMVI; 1.63 µM (inactive) in the test on M19-MEL. Further, the GI50 is 0.771 µM (active) in the test on Malme-3M, 1.62 µM (inactive) in the test with SF-268, 1.67 µM (inactive) with SNB-19 and 0.853 µM (active) in the test with SNB-75.
As to `O=CC1=CCCC2(C1)OCCO2`, the GI50 in the test with 786-0 is > 100 µM (inactive); in the test on A498, > 100 µM (inactive); in the test on CAKI-1, > 100 µM (inactive); with HCC 2998, > 100 µM (inactive); in the test on HCT-15 it was over 100 µM; in the test on HL-60 it was > 100 µM (inactive). The GI50 in the test with HOP-92, with K562, in the test on KM12, in the test on LOX IMVI, in the test with M19-MEL and in the test on Malme-3M was > 100 µM (inactive) throughout. The GI50 in the test on SF-268 was > 100 µM (inactive); in the test on SNB-19, > 100 µM (inactive); in the test on SNB-75 it was 4.95 µM (inactive).
